Assay results reported in patent publication US9023865B2, “Compounds that are ERK inhibitors” (Merck Sharp & Dohme Corp., priority 2011, dated 2015).

What follows are compounds tested against Active Human ERK2 (hERK2) (Homo sapiens (Human), UniProt P28482) (assay: Active Human ERK2 (hERK2) Activity Assay (IMAP-FP)). Conditions: phosphorylated active hERK2, 30 μM ATP; average; read-out: ERK 2 Human average IC50.
Format: biochemical
In short: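 Phosphorylation by activated human ERK2 (0.5 nM) at 30 μM ATP, peptide substrate 900 nM unlabeled with 80 nM labeled, proceeds 60 min. IMAP beads stop the reaction; after 60 min equilibration, product is measured by fluorescence polarization.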

Sequence of Active Human ERK2 (hERK2) (P28482 whole entry): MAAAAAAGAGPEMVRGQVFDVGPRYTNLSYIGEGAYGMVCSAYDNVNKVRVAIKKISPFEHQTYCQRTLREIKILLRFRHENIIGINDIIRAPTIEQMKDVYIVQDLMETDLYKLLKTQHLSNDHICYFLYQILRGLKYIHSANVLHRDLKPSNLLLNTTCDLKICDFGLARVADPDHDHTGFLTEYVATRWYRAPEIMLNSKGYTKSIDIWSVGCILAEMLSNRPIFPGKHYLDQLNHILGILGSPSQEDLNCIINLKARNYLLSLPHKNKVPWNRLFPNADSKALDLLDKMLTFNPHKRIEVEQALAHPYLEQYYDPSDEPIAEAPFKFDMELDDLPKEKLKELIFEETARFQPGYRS

| Compound | IC50 [nM] |
| --- | --- |
| COC[C@@H](NC(=O)Nc1cc2[nH]nc(-c3ccc(C#N)nc3)c2cn1)c1ccc(F)cc1 [Example 303] | 3.21 |
| COC[C@@H](NC(=O)Nc1cc2[nH]nc(-c3ccnc(C#N)c3)c2cn1)c1ccc(F)cc1 [Example 304] | 1.75 |
| COC[C@@H](NC(=O)Nc1cc2[nH]nc(-c3ccc(C(F)(F)F)nc3)c2cn1)c1ccc(F)cc1 [Example 305] | 24.7 |
| COC[C@@H](NC(=O)Nc1cc2[nH]nc(-c3ccnc(N4CCNCC4)c3)c2cn1)c1ccc(F)cc1 [Example 306] | 0.81 |
| COC[C@@H](NC(=O)Nc1cc2[nH]nc(-c3ccc(-n4ccnn4)cc3)c2cn1)c1ccc(F)cc1 [Example 307] | 1.75 |
| Cc1cncc(-c2n[nH]c3cc(NC(=O)N[C@H](C)c4ccc(F)cc4)ncc23)c1 [Example 308] | 1.8 |
| CC(C)CN(C)c1ncc(-c2n[nH]c3cc(NC(=O)N[C@H](C)c4ccc(F)cc4)ncc23)cn1 [Example 309] | 44.5 |
| COc1cc(-c2n[nH]c3cc(NC(=O)N[C@H](C)c4ccc(F)cc4)ncc23)ccn1 [Example 310] | 6.52 |
| CCS(=O)(=O)c1ccc(-c2n[nH]c3cc(NC(=O)N[C@H](C)c4ccc(F)cc4)ncc23)cn1 [Example 311] | 26.2 |
| COc1ncc(-c2n[nH]c3cc(NC(=O)N[C@@H]4CCCOc5ccccc54)ncc23)cn1 [Example 312] | 0.751 |
| COc1ncc(-c2n[nH]c3cc(NC(=O)N[C@H](C)c4ccccc4)ncc23)cn1 [Example 313] | 0.717 |
| COC[C@@H](NC(=O)Nc1cc2[nH]nc(-c3cnc(OC)nc3)c2cn1)c1ccccc1 [Example 314] | 0.88 |
| Cc1cc(-c2n[nH]c3cc(NC(=O)NCc4cccc(C)n4)ncc23)ccn1 [Example 315] | 1.93 |
| CN1CC[C@@H](NC(=O)Nc2cc3[nH]nc(-c4ccc(F)cc4)c3cn2)C1 [Example 316] | 1.84 |
| CO[C@H]1CN(C)C[C@@H]1NC(=O)Nc1cc2[nH]nc(-c3ccc(F)cc3)c2cn1 [Example 317] | 1.13 |
| CO[C@@H]1CN(C)C[C@H]1NC(=O)Nc1cc2[nH]nc(-c3ccc(F)cc3)c2cn1 [Example 318] | 30.2 |
| CCO[C@H]1CN(C)C[C@@H]1NC(=O)Nc1cc2[nH]nc(-c3ccc(F)cc3)c2cn1 [Example 319] | 0.521 |
| CCO[C@@H]1CN(C)C[C@H]1NC(=O)Nc1cc2[nH]nc(-c3ccc(F)cc3)c2cn1 [Example 320] | 25.4 |
| CN1CC[C@@H](CNC(=O)Nc2cc3[nH]nc(-c4ccc(F)cc4)c3cn2)C1 [Example 321] | 0.986 |
| CN1CC[C@H](CNC(=O)Nc2cc3[nH]nc(-c4ccc(F)cc4)c3cn2)C1 [Example 322] | 1.17 |
| Cc1cc(-c2n[nH]c3cc(NC(=O)N[C@@H]4CNC[C@H]4F)ncc23)ccn1 [Example 325] | 3.96 |
| Cc1cc(-c2n[nH]c3cc(NC(=O)N[C@@H]4CCN(CC(F)(F)F)C4)ncc23)ccn1 [Example 326] | 3.54 |
| Cc1cc(-c2n[nH]c3cc(NC(=O)N[C@H]4CCN(CC(F)(F)F)C4)ncc23)ccn1 [Example 327] | 0.448 |
| Cc1cc(-c2n[nH]c3cc(NC(=O)N[C@H]4CN(C)C[C@@H]4F)ncc23)ccn1 [Example 328, 1-((3S,4S)-4-fluoro-1-methylpyrrolidin-3-yl)-3-(3-(2-methylpyridin-4-yl)-1H-pyrazolo[4,3-c]pyridin-6-yl)urea] | 1.57 |
| Cc1cc(-c2n[nH]c3cc(NC(=O)N[C@@H]4CN(C)C[C@H]4F)ncc23)ccn1 [Example 329, 1-((3R,4R)-4-fluoro-1-methylpyrrolidin-3-yl)-3-(3-(2-methylpyridin-4-yl)-1H-pyrazolo[4,3-c]pyridin-6-yl)urea] | 56.5 |

| Compound | IC50 [nM] |
| --- | --- |
| Cc1cc(-c2n[nH]c3cc(NC(=O)N[C@@H]4CN(CC(F)(F)F)C[C@H]4c4ccccc4)ncc23)ccn1 [Example 330] | 3.06 |
| Cc1cc(-c2n[nH]c3cc(NC(=O)N[C@@H](CN)c4ccccc4)ncc23)ccn1 [Example 331] | 29.1 |
| Cc1cc(-c2n[nH]c3cc(NC(=O)NC4c5ccccc5CC4O)ncc23)ccn1 (centres unmarked) [Example 332] | 1.34 |
| Cc1cc(-c2n[nH]c3cc(NC(=O)NCc4cccc(-c5ccccc5)c4)ncc23)ccn1 [Example 333] | 3.38 |
| Cc1cc(-c2n[nH]c3cc(NC(=O)NC(CCO)c4ccccc4)ncc23)ccn1 (centres unmarked) [Example 334] | 0.333 |
| Cc1cc(-c2n[nH]c3cc(NC(=O)NC(CO)c4cccnc4)ncc23)ccn1 (centres unmarked) [Example 336] | 1.03 |
| Cc1cc(-c2n[nH]c3cc(NC(=O)Nc4noc5ccccc45)ncc23)ccn1 [Example 337] | 1.4 |
| Cc1cc(-c2n[nH]c3cc(NC(=O)NC(C)c4ccc(F)c(F)c4)ncc23)ccn1 (centres unmarked) [Example 338] | 0.998 |
| Cc1ccc(C(C)NC(=O)Nc2cc3[nH]nc(-c4ccnc(C)c4)c3cn2)nc1 (centres unmarked) [Example 339] | 6.08 |
| Cc1cc(-c2n[nH]c3cc(NC(=O)N[C@@H](C)c4ccc(Cl)c(C)c4)ncc23)ccn1 [Example 340] | 723 |
| Cc1cc(-c2n[nH]c3cc(NC(=O)N[C@H](C)c4ccc(Cl)c(C)c4)ncc23)ccn1 [Example 341] | 2.91 |
| Cc1ccc(C2(NC(=O)Nc3cc4[nH]nc(-c5ccnc(C)c5)c4cn3)CC2)cc1 [Example 342] | 40.9 |
| Cc1cc(-c2n[nH]c3cc(NC(=O)NC4(c5ccc(F)cc5)CC4)ncc23)ccn1 [Example 343] | 18.7 |
| CCC(NC(=O)Nc1cc2[nH]nc(-c3ccnc(C)c3)c2cn1)c1ccc(Cl)cc1 (centres unmarked) [Example 344] | 3.15 |
| Cc1cc(-c2n[nH]c3cc(NC(=O)N[C@@H](C)c4ccccn4)ncc23)ccn1 [Example 345] | 5.37 |
| Cc1cc(-c2n[nH]c3cc(NC(=O)N[C@H](CO)c4ccc(F)cc4)ncc23)ccn1 [Example 346] | 88.2 |
| CCC(NC(=O)Nc1cc2[nH]nc(-c3ccnc(C)c3)c2cn1)c1ccccn1 (centres unmarked) [Example 347] | 1.34 |
| COCC(NC(=O)Nc1cc2[nH]nc(-c3ccnc(C)c3)c2cn1)c1ccccn1 (centres unmarked) [Example 348] | 2.16 |
| Cc1cc(-c2n[nH]c3cc(NC(=O)NC(C)c4ncccc4C)ncc23)ccn1 (centres unmarked) [Example 349] | 6.57 |
| Cc1cc(-c2n[nH]c3cc(NC(=O)NC4(c5ccccc5)CC4)ncc23)ccn1 [Example 350] | 10.6 |
| Cc1cc(-c2n[nH]c3cc(NC(=O)NC4(c5ccccn5)CC4)ncc23)ccn1 [Example 351] | 91.9 |
| Cc1cc(-c2n[nH]c3cc(NC(=O)NC4(c5ccncc5)CCC4)ncc23)ccn1 [Example 352] | 30.2 |
| Cc1cc(-c2n[nH]c3cc(NC(=O)NC(CCN(C)C)c4ccccn4)ncc23)ccn1 (centres unmarked) [Example 353] | 1.56 |
| Cc1cc(-c2n[nH]c3cc(NC(=O)NC(CF)c4ccccc4)ncc23)ccn1 (centres unmarked) [Example 354] | 0.474 |
| Cc1cc(-c2n[nH]c3cc(NC(=O)NC4(c5ccccn5)CCC4)ncc23)ccn1 [Example 355] | 1.54 |

| Compound | IC50 [nM] |
| --- | --- |
| Cc1cc(-c2n[nH]c3cc(NC(=O)NC4(c5ccncc5)CC4)ncc23)ccn1 [Example 356] | 130 |
| Cc1cc(-c2n[nH]c3cc(NC(=O)NC(C)(C)c4ccccn4)ncc23)ccn1 [Example 357] | 106 |
| Cc1cc(-c2n[nH]c3cc(NC(=O)NC4(c5ccccn5)CCCC4)ncc23)ccn1 [Example 358] | 137 |
| COc1ccc(C2(NC(=O)Nc3cc4[nH]nc(-c5ccnc(C)c5)c4cn3)CC2)cc1 [Example 359] | 9.27 |
| Cc1cc(-c2n[nH]c3cc(NC(=O)Nc4noc5cnccc45)ncc23)ccn1 [Example 360] | 0.378 |
| Cc1cc(-c2n[nH]c3cc(NC(=O)NC(CN)c4ccccc4)ncc23)ccn1 (centres unmarked) [Example 361] | 0.232 |
| Cc1cc(-c2n[nH]c3cc(NC(=O)N[C@H](CO)c4cccc5cc[nH]c45)ncc23)ccn1 [Example 362] | 0.288 |
| Cc1cc(-c2n[nH]c3cc(NC(=O)N[C@@H](CO)c4cccc5cc[nH]c45)ncc23)ccn1 [Example 363] | 25.9 |
| Cc1cc(-c2n[nH]c3cc(NC(=O)NC(C)c4ccc(F)cn4)ncc23)ccn1 (centres unmarked) [Example 364] | 1.66 |
| Cc1cc(-c2n[nH]c3cc(NC(=O)NC(CO)c4cc(F)cc(F)c4)ncc23)ccn1 (centres unmarked) [Example 365] | 0.603 |
| Cc1cc(-c2n[nH]c3cc(NC(=O)NCc4cccc(NS(C)(=O)=O)c4)ncc23)ccn1 [Example 366] | 0.34 |
| Cc1cc(-c2n[nH]c3cc(NC(=O)N[C@@H]4[C@H](CO)[C@H]5CC[C@@H]4O5)ncc23)ccn1 [Example 367] | 4.51 |
| Cc1cc(-c2n[nH]c3cc(NC(=O)NCc4ccc5[nH]cnc5c4)ncc23)ccn1 [Example 368] | 2.79 |
| Cc1cc(-c2n[nH]c3cc(NC(=O)NCc4ccc5c(c4)CNC5=O)ncc23)ccn1 [Example 369] | 1.41 |
| Cc1cc(-c2n[nH]c3cc(NC(=O)NCC4CC(C)(C)OC(C)(C)C4)ncc23)ccn1 [Example 370] | 1.45 |
| Cc1cc(-c2n[nH]c3cc(NC(=O)NCc4ccc(-c5ncc[nH]5)cc4)ncc23)ccn1 [Example 371] | 59 |
| Cc1cc(-c2n[nH]c3cc(NC(=O)NCc4cccc(-c5ncc[nH]5)c4)ncc23)ccn1 [Example 372] | 1.33 |
| Cc1cc(-c2n[nH]c3cc(NC(=O)NCCC4COc5ccccc5O4)ncc23)ccn1 (centres unmarked) [Example 373] | 1.07 |
| Cc1cc(-c2n[nH]c3cc(NC(=O)N[C@H]4CN[C@H](c5ccccc5)C4)ncc23)ccn1 [Example 374] | 351 |
| Cc1cc(-c2n[nH]c3cc(NC(=O)NC(C)c4ccc(-n5cncn5)cc4)ncc23)ccn1 (centres unmarked) [Example 375] | 12.8 |
| Cc1cc(-c2n[nH]c3cc(NC(=O)NC(C)c4ccc(S(C)(=O)=O)cc4)ncc23)ccn1 (centres unmarked) [Example 376] | 0.582 |
| Cc1cc(-c2n[nH]c3cc(NC(=O)NCCc4nc5ccccc5[nH]4)ncc23)ccn1 [Example 377] | 0.478 |
| Cc1cc(-c2n[nH]c3cc(NC(=O)NC(CCN4CCCC4)c4ccncc4)ncc23)ccn1 (centres unmarked) [Example 378] | 55.6 |
| Cc1cc(-c2n[nH]c3cc(NC(=O)NC(c4ccccc4)C(F)F)ncc23)ccn1 (centres unmarked) [Example 379] | 1.51 |
